# Assay results taken from article PMC12150326 (The Journal of Organic Chemistry, 2025).
# Tests used:
# Assay type in all cases: cell-based, human
# HOP-62 = system: HOP-62
# Method in brief: (§1)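 Screening via NCI-60, five log concentrations from 0.01 to 100 μM; TGI compared by COMPARE with reference tubulin agents.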
# MDA-MB-231/ATCC = system: MDA-MB-231/ATCC
# Method in brief: (§2)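 Compounds were tested in the NCI 60-cell-line panel at five concentrations: 100 μM, 10 μM, 1 μM, 0.1 μM and 0.01 μM. For COMPARE analysis, TGI response levels were matched against those of established tubulin inhibitors previously run in the same screen.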
# RXF 393 = system: RXF 393
# Method in brief: as §2
# U251 = system: U251
# Method in brief: as §2
# UACC-62 = system: UACC-62
# Method in brief: as §1
# HS 578T = system: HS 578T
# Method in brief: as §2
# K-562 = system: K-562
# Method in brief: as §2
# SK-MEL-2 = system: SK-MEL-2
# Method in brief: as §2
# M14 = system: M14
# Method in brief: as §2
# UACC-257 = system: UACC-257
# Method in brief: as §2
# HT29 = system: HT29
# Method in brief: as §2
# NCI-H23 = system: NCI-H23
# Method in brief: as §2
# LOX IMVI = system: LOX IMVI
# Method in brief: as §1
# MDA-MB-435 = system: MDA-MB-435
# Method in brief: as §1
# EKVX = system: EKVX
# Method in brief: as §1
# SN12C = system: SN12C
# Method in brief: as §2
# HL-60(TB) = system: HL-60(TB)
# Method in brief: as §1
# HCT-15 = system: HCT-15
# Method in brief: as §2
# HCT-116 = system: HCT-116
# Method in brief: as §2
# NCI/ADR-RES = system: NCI/ADR-RES
# Method in brief: as §2
# OVCAR-4 = system: OVCAR-4
# Method in brief: as §2
# SW-620 = system: SW-620
# Method in brief: as §2
# NCI-H522 = system: NCI-H522
# Method in brief: as §2
# OVCAR-8 = system: OVCAR-8
# Method in brief: as §2
# PC-3 = system: PC-3
# Method in brief: as §1
# COLO 205 = system: COLO 205
# Method in brief: as §2
# CAKI-1 = system: CAKI-1
# Method in brief: as §2
smiles,measurement,setting,value
"COc1cc(C)c(-c2ccc(OC)c(=O)cc2C)c(OC)c1OC (single isomer, unassigned) [(aS)-6]",Log10GI50,HOP-62,> -4.00 Molar
same,Log10LC50,HOP-62,> -4.00 Molar
same,Log10TGI,HOP-62,> -4.00 Molar
same,Log10GI50,MDA-MB-231/ATCC,> -4.00 Molar
same,Log10LC50,MDA-MB-231/ATCC,> -4.00 Molar
same,Log10TGI,MDA-MB-231/ATCC,> -4.00 Molar
same,Log10GI50,RXF 393,> -4.00 Molar
same,Log10LC50,RXF 393,> -4.00 Molar
same,Log10TGI,RXF 393,> -4.00 Molar
same,Log10GI50,U251,> -4.00 Molar
same,Log10LC50,U251,> -4.00 Molar
same,Log10TGI,U251,> -4.00 Molar
same,Log10GI50,UACC-62,> -4.00 Molar
same,Log10LC50,UACC-62,> -4.00 Molar
same,Log10TGI,UACC-62,> -4.00 Molar
same,Log10GI50,HS 578T,> -4.00 Molar
same,Log10LC50,HS 578T,> -4.00 Molar
same,Log10TGI,HS 578T,> -4.00 Molar
same,Log10GI50,K-562,-4.38 Molar
same,Log10LC50,K-562,> -4.00 Molar
same,Log10TGI,K-562,> -4.00 Molar
same,Log10GI50,SK-MEL-2,> -4.00 Molar
same,Log10LC50,SK-MEL-2,> -4.00 Molar
same,Log10TGI,SK-MEL-2,> -4.00 Molar
same,Log10GI50,M14,> -4.00 Molar
same,Log10LC50,M14,> -4.00 Molar
same,Log10TGI,M14,> -4.00 Molar
same,Log10GI50,UACC-257,> -4.00 Molar
same,Log10LC50,UACC-257,> -4.00 Molar
same,Log10TGI,UACC-257,> -4.00 Molar
same,Log10GI50,HT29,> -4.00 Molar
same,Log10LC50,HT29,> -4.00 Molar
same,Log10TGI,HT29,> -4.00 Molar
same,Log10GI50,NCI-H23,> -4.00 Molar
same,Log10LC50,NCI-H23,> -4.00 Molar
same,Log10TGI,NCI-H23,> -4.00 Molar
same,Log10GI50,LOX IMVI,> -4.00 Molar
same,Log10LC50,LOX IMVI,> -4.00 Molar
same,Log10TGI,LOX IMVI,> -4.00 Molar
same,Log10GI50,MDA-MB-435,-4.14 Molar
same,Log10LC50,MDA-MB-435,> -4.00 Molar
same,Log10TGI,MDA-MB-435,> -4.00 Molar
same,Log10GI50,EKVX,> -4.00 Molar
same,Log10LC50,EKVX,> -4.00 Molar
same,Log10TGI,EKVX,> -4.00 Molar
same,Log10GI50,SN12C,> -4.00 Molar
same,Log10LC50,SN12C,> -4.00 Molar
same,Log10TGI,SN12C,> -4.00 Molar
same,Log10GI50,HL-60(TB),> -4.00 Molar
same,Log10LC50,HL-60(TB),> -4.00 Molar
same,Log10TGI,HL-60(TB),> -4.00 Molar
same,Log10GI50,HCT-15,> -4.00 Molar
same,Log10LC50,HCT-15,> -4.00 Molar
same,Log10TGI,HCT-15,> -4.00 Molar
same,Log10GI50,HCT-116,> -4.00 Molar
same,Log10LC50,HCT-116,> -4.00 Molar
same,Log10TGI,HCT-116,> -4.00 Molar
same,Log10GI50,NCI/ADR-RES,> -4.00 Molar
same,Log10LC50,NCI/ADR-RES,> -4.00 Molar
same,Log10TGI,NCI/ADR-RES,> -4.00 Molar
same,Log10GI50,OVCAR-4,> -4.00 Molar
same,Log10LC50,OVCAR-4,> -4.00 Molar
same,Log10TGI,OVCAR-4,> -4.00 Molar
same,Log10GI50,SW-620,> -4.00 Molar
same,Log10LC50,SW-620,> -4.00 Molar
same,Log10TGI,SW-620,> -4.00 Molar
same,Log10GI50,NCI-H522,> -4.00 Molar
same,Log10LC50,NCI-H522,> -4.00 Molar
same,Log10TGI,NCI-H522,> -4.00 Molar
same,Log10GI50,OVCAR-8,> -4.00 Molar
same,Log10LC50,OVCAR-8,> -4.00 Molar
same,Log10TGI,OVCAR-8,> -4.00 Molar
same,Log10GI50,PC-3,> -4.00 Molar
same,Log10LC50,PC-3,> -4.00 Molar
same,Log10TGI,PC-3,> -4.00 Molar
same,Log10GI50,COLO 205,> -4.00 Molar
same,Log10LC50,COLO 205,> -4.00 Molar
same,Log10TGI,COLO 205,> -4.00 Molar
same,Log10GI50,CAKI-1,> -4.00 Molar
same,Log10LC50,CAKI-1,> -4.00 Molar
same,Log10TGI,CAKI-1,> -4.00 Molar
"COc1cc(C)c(-c2ccc(=O)c(OC)cc2C)c(OC)c1OC (single isomer, unassigned) [(aR)-iso-6]",Log10GI50,HOP-62,> -4.00 Molar
same,Log10LC50,HOP-62,> -4.00 Molar
same,Log10TGI,HOP-62,> -4.00 Molar
same,Log10GI50,MDA-MB-231/ATCC,> -4.00 Molar
same,Log10LC50,MDA-MB-231/ATCC,> -4.00 Molar
same,Log10TGI,MDA-MB-231/ATCC,> -4.00 Molar
same,Log10GI50,RXF 393,> -4.00 Molar
same,Log10LC50,RXF 393,> -4.00 Molar
same,Log10TGI,RXF 393,> -4.00 Molar
same,Log10GI50,U251,> -4.00 Molar
same,Log10LC50,U251,> -4.00 Molar
same,Log10TGI,U251,> -4.00 Molar
same,Log10GI50,UACC-62,> -4.00 Molar
same,Log10LC50,UACC-62,> -4.00 Molar
same,Log10TGI,UACC-62,> -4.00 Molar
same,Log10GI50,HS 578T,> -4.00 Molar
same,Log10LC50,HS 578T,> -4.00 Molar
same,Log10TGI,HS 578T,> -4.00 Molar
same,Log10GI50,K-562,> -4.00 Molar
same,Log10LC50,K-562,> -4.00 Molar
same,Log10TGI,K-562,> -4.00 Molar
same,Log10GI50,SK-MEL-2,> -4.00 Molar
same,Log10LC50,SK-MEL-2,> -4.00 Molar
same,Log10TGI,SK-MEL-2,> -4.00 Molar
same,Log10GI50,M14,> -4.00 Molar
same,Log10LC50,M14,> -4.00 Molar
same,Log10TGI,M14,> -4.00 Molar
same,Log10GI50,UACC-257,> -4.00 Molar
same,Log10LC50,UACC-257,> -4.00 Molar
same,Log10TGI,UACC-257,> -4.00 Molar
same,Log10GI50,HT29,> -4.00 Molar
same,Log10LC50,HT29,> -4.00 Molar
same,Log10TGI,HT29,> -4.00 Molar
same,Log10GI50,NCI-H23,> -4.00 Molar
same,Log10LC50,NCI-H23,> -4.00 Molar
same,Log10TGI,NCI-H23,> -4.00 Molar
same,Log10GI50,LOX IMVI,> -4.00 Molar
same,Log10LC50,LOX IMVI,> -4.00 Molar
same,Log10TGI,LOX IMVI,> -4.00 Molar
same,Log10GI50,MDA-MB-435,> -4.00 Molar
same,Log10LC50,MDA-MB-435,> -4.00 Molar
same,Log10TGI,MDA-MB-435,> -4.00 Molar
same,Log10GI50,EKVX,> -4.00 Molar
same,Log10LC50,EKVX,> -4.00 Molar
same,Log10TGI,EKVX,> -4.00 Molar
same,Log10GI50,SN12C,> -4.00 Molar
same,Log10LC50,SN12C,> -4.00 Molar
same,Log10TGI,SN12C,> -4.00 Molar
same,Log10GI50,HL-60(TB),> -4.00 Molar
same,Log10LC50,HL-60(TB),> -4.00 Molar
same,Log10TGI,HL-60(TB),> -4.00 Molar
same,Log10GI50,HCT-15,> -4.00 Molar
same,Log10LC50,HCT-15,> -4.00 Molar
same,Log10TGI,HCT-15,> -4.00 Molar
same,Log10GI50,HCT-116,> -4.00 Molar
same,Log10LC50,HCT-116,> -4.00 Molar
same,Log10TGI,HCT-116,> -4.00 Molar
same,Log10GI50,NCI/ADR-RES,> -4.00 Molar
same,Log10LC50,NCI/ADR-RES,> -4.00 Molar
same,Log10TGI,NCI/ADR-RES,> -4.00 Molar
same,Log10GI50,OVCAR-4,> -4.00 Molar
same,Log10LC50,OVCAR-4,> -4.00 Molar
same,Log10TGI,OVCAR-4,> -4.00 Molar
same,Log10GI50,SW-620,> -4.00 Molar
same,Log10LC50,SW-620,> -4.00 Molar
same,Log10TGI,SW-620,> -4.00 Molar
same,Log10GI50,NCI-H522,> -4.00 Molar
same,Log10LC50,NCI-H522,> -4.00 Molar
same,Log10TGI,NCI-H522,> -4.00 Molar
same,Log10GI50,OVCAR-8,> -4.00 Molar
same,Log10LC50,OVCAR-8,> -4.00 Molar
same,Log10TGI,OVCAR-8,> -4.00 Molar
same,Log10GI50,PC-3,> -4.00 Molar
same,Log10LC50,PC-3,> -4.00 Molar
same,Log10TGI,PC-3,> -4.00 Molar
same,Log10GI50,COLO 205,> -4.00 Molar
same,Log10LC50,COLO 205,> -4.00 Molar
same,Log10TGI,COLO 205,> -4.00 Molar
same,Log10GI50,CAKI-1,> -4.00 Molar
same,Log10LC50,CAKI-1,> -4.00 Molar
same,Log10TGI,CAKI-1,> -4.00 Molar
